Measurements taken from article PMC5766975, “Production of eicosapentaenoic acid by application of a delta-6 desaturase with the highest ALA catalytic activity in algae” (Microbial Cell Factories, 2018).
Like-named read-outs stand apart in the source and are kept apart here.

What was measured:
[1] = biological target: T1, TpFADS6 (Thalassiosira pseudonana, UniProt Q4G2T1); parameters: gene desI; settings: single substrate fed to Saccharomyces cerevisiae INVSc1 expressing the desaturase; delta-6 desaturation; free acid fed
[2] = biological target: T1, TpFADS6; assay: fatty acid composition of substrate-fed yeast transformants by GC (conversion to GLA); format: cell-based; parameters: gene desI; full-length, synthetic codon-optimised gene, 1455-bp fragment; expressed from pYES2/NT C (vector-encoded tag) in Saccharomyces cerevisiae INVSc1; settings: single substrate fed to Saccharomyces cerevisiae INVSc1 expressing the desaturase; delta-6 desaturation; free acid fed

T1 sequence (Q4G2T1 entry or part of it): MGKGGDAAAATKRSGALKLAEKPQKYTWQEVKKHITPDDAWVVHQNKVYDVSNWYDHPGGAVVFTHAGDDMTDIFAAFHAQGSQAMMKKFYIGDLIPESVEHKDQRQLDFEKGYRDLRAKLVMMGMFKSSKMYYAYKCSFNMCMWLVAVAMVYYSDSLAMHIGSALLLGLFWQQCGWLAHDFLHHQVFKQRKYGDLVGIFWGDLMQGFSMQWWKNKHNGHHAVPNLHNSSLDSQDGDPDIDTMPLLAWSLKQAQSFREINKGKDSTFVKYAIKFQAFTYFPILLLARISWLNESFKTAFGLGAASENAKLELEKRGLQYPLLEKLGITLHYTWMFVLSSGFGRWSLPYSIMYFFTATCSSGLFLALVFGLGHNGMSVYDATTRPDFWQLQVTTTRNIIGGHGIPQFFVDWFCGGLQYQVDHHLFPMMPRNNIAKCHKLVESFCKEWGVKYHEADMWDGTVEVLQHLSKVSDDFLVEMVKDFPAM

SMILES	fatty acid composition of substrate-fed yeast transformants by GC (conversion to) [1]	fatty acid composition of substrate-fed yeast transformants by GC (conversion to) [2]
CC/C=C\C/C=C\C/C=C\CCCCCCCC(=O)O [ALA, α-linolenic acid]	both substrates were catalyzed by TpFADS6	–
CCCCC/C=C\C/C=C\CCCCCCCC(=O)O [LA, linoleic acid]	–	both substrates were catalyzed by TpFADS6
